Reference: PubChem BioAssay AID248 (DTP/NCI, 2004)
“And” between values parts separate entries of the source, which are not always exact repeats. Equal values may be shown once. Inconclusive results and toxic doses are left out. No stated cut-off is given here; in the data, active means T/C of 150% or more; inactive means T/C below 125%.

System: L1210 leukemia ip in BDF1 mice, survival T/C
Test: NCI In Vivo Anticancer Drug Screen. Data for tumor model L1210 Leukemia (intraperitoneal) in B6D2F1 (BDF1) mice
Settings: endpoint: mean survival time, higher = longer survival
How it was run: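 Value reflects the ratio of survival in compound-treated mice to survival in vehicle-treated controls, with both groups carrying the same transplanted tumor.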

[1] = dose: 100.0 mg/kg/injection, schedule: Q04DX003 (ip), vehicle: saline with Tween-80
[2] = dose: 200.0 mg/kg/injection, schedule: Q04DX003 (ip), vehicle: saline with Tween-80
[3] = dose: 400.0 mg/kg/injection, schedule: Q04DX003 (ip), vehicle: saline with Tween-80
[4] = dose: 50.0 mg/kg/injection, schedule: Q01DX009 (ip), vehicle: saline with Tween-80
[5] = dose: 100.0 mg/kg/injection, schedule: Q01DX009 (ip), vehicle: saline with Tween-80
[6] = dose: 200.0 mg/kg/injection, schedule: Q01DX009 (ip), vehicle: saline with Tween-80
[7] = dose: 400.0 mg/kg/injection, schedule: Q01DX009 (ip), vehicle: saline with Tween-80
[8] = dose: 50.0 mg/kg/injection, schedule: Q01DX009 (ip), vehicle: Klucel (hydroxypropylcellulose) (HPC)
[9] = dose: 100.0 mg/kg/injection, schedule: Q04DX003 (ip), vehicle: Klucel (hydroxypropylcellulose) (HPC)
[10] = dose: 200.0 mg/kg/injection, schedule: Q04DX003 (ip), vehicle: Klucel (hydroxypropylcellulose) (HPC)

Measured: T/C

N#C/C(=C\c1c(Cl)cccc1Cl)c1ccc([N+](=O)[O-])cc1
inactive: [1] 106 % of control | [2] 95 % of control | [3] 92 % of control

COC(c1ccccc1)C(Br)C(=O)c1ccccc1 (stereo not given)
inactive: dose: 100.0 mg/kg/injection, schedule: Q04DX003 (ip), vehicle: acetone 96 % of control | dose: 200.0 mg/kg/injection, schedule: Q04DX003 (ip), vehicle: acetone 101 % of control | dose: 400.0 mg/kg/injection, schedule: Q04DX003 (ip), vehicle: acetone 95 % of control

COC(=O)COc1ccc(Cl)cc1C(=O)O
inactive: [1] 94 % of control | [2] 92 % of control

Cc1ccc(Cl)c2ccccc12
inactive: dose: 12.5 mg/kg/injection, schedule: Q01DX009 (ip), vehicle: saline with Tween-80 106 % of control | dose: 25.0 mg/kg/injection, schedule: Q01DX009 (ip), vehicle: saline with Tween-80 104 % of control | [4] 106 % of control | [5] 93 % of control | [6] 90 % of control | [7] 101 % of control

O=C(CCCO)N/N=C\c1ccc([N+](=O)[O-])s1
inactive: dose: 100.0 mg/kg/injection, schedule: Q04DX003 (ip), vehicle: saline 95 % of control | dose: 200.0 mg/kg/injection, schedule: Q04DX003 (ip), vehicle: saline 93 % of control | dose: 400.0 mg/kg/injection, schedule: Q04DX003 (ip), vehicle: saline 101 % of control

CCN(CC)CCN1C(=O)C(C)C=C(C)C=C1C (stereo not given)
inactive: dose: 9.0 mg/kg/injection, schedule: Q04DX003 (ip), vehicle: other 97 % of control | dose: 18.0 mg/kg/injection, schedule: Q04DX003 (ip), vehicle: other 92 % of control | dose: 19.0 mg/kg/injection, schedule: Q01DX009 (ip), vehicle: other 105 % of control | dose: 38.0 mg/kg/injection, schedule: Q01DX009 (ip), vehicle: other 105 % of control | dose: 75.0 mg/kg/injection, schedule: Q01DX001 (ip), vehicle: other 100 % of control | dose: 75.0 mg/kg/injection, schedule: Q01DX009 (ip), vehicle: other 105 % of control | dose: 75.0 mg/kg/injection, schedule: Q04DX003 (ip), vehicle: other 91 % of control

C=CCNC(=S)N/N=C\c1cc(OC)c(OC)c(OC)c1
inactive: [1] 96 % of control | [2] 94 % of control | [3] 98 % of control

CC(C)(CO)COS(=O)(=O)c1ccc(Br)cc1
inactive: [4] 89 % of control

c1ccc([P+](CCN2CCC([P+](c3ccccc3)(c3ccccc3)c3ccccc3)=N2)(c2ccccc2)c2ccccc2)cc1
inactive: dose: 1.56 mg/kg/injection, schedule: Q04DX003 (ip), vehicle: saline 103 % of control | dose: 3.12 mg/kg/injection, schedule: Q04DX003 (ip), vehicle: saline 105 % of control

CC(C)CC(NC(=O)c1ccccc1)C(N)=O (stereo not given)
inactive: [5] 90 % of control | [6] 90 % of control

CCCCC(=O)N1CCCCC1C (stereo not given)
inactive: dose: 50.0 mg/kg/injection, schedule: Q01DX001 (ip), vehicle: carboxymethylcellulose (CMC) 102 % of control | dose: 50.0 mg/kg/injection, schedule: Q01DX009 (ip), vehicle: carboxymethylcellulose (CMC) 94 % of control and 100 % of control | dose: 50.0 mg/kg/injection, schedule: Q04DX003 (ip), vehicle: carboxymethylcellulose (CMC) 96 % of control | dose: 100.0 mg/kg/injection, schedule: Q01DX001 (ip), vehicle: carboxymethylcellulose (CMC) 101 % of control | dose: 100.0 mg/kg/injection, schedule: Q01DX009 (ip), vehicle: carboxymethylcellulose (CMC) 97 % of control and 98 % of control | dose: 100.0 mg/kg/injection, schedule: Q04DX002 (ip), vehicle: carboxymethylcellulose (CMC) 105 % of control | dose: 100.0 mg/kg/injection, schedule: Q04DX003 (ip), vehicle: carboxymethylcellulose (CMC) 100 % of control | dose: 200.0 mg/kg/injection, schedule: Q01DX001 (ip), vehicle: carboxymethylcellulose (CMC) 101 % of control | dose: 200.0 mg/kg/injection, schedule: Q01DX009 (ip), vehicle: carboxymethylcellulose (CMC) 96 % of control and 97 % of control | dose: 200.0 mg/kg/injection, schedule: Q04DX002 (ip), vehicle: carboxymethylcellulose (CMC) 98 % of control | dose: 200.0 mg/kg/injection, schedule: Q04DX003 (ip), vehicle: carboxymethylcellulose (CMC) 105 % of control | dose: 400.0 mg/kg/injection, schedule: Q04DX002 (ip), vehicle: carboxymethylcellulose (CMC) 102 % of control

OC(c1ccccc1)C1C(c2ccccc2)N1C1CCCCC1 (stereo not given)
inactive: dose: 25.0 mg/kg/injection, schedule: Q01DX009 (ip), vehicle: Klucel (hydroxypropylcellulose) (HPC) 97 % of control | [8] 96 % of control | [9] 101 % of control | [10] 98 % of control

CCCCCCCCCC(=O)c1ccccc1
inactive: dose: 100.0 mg/kg/injection, schedule: Q04DX002 (ip), vehicle: Klucel (hydroxypropylcellulose) (HPC) 96 % of control | dose: 200.0 mg/kg/injection, schedule: Q04DX002 (ip), vehicle: Klucel (hydroxypropylcellulose) (HPC) 103 % of control | dose: 400.0 mg/kg/injection, schedule: Q04DX002 (ip), vehicle: Klucel (hydroxypropylcellulose) (HPC) 100 % of control

Nc1cccc(CNC(=O)COc2cccc(Cl)c2)c1
inactive: [8] 116 % of control | dose: 100.0 mg/kg/injection, schedule: Q01DX009 (ip), vehicle: Klucel (hydroxypropylcellulose) (HPC) 109 % of control | [9] 96 % of control | dose: 200.0 mg/kg/injection, schedule: Q01DX009 (ip), vehicle: Klucel (hydroxypropylcellulose) (HPC) 120 % of control | [10] 96 % of control | dose: 400.0 mg/kg/injection, schedule: Q04DX003 (ip), vehicle: Klucel (hydroxypropylcellulose) (HPC) 104 % of control

O=C1C(=O)N2c3ccccc3CCc3cccc1c32
inactive: dose: 100.0 mg/kg/injection, schedule: Q01DX001 (ip), vehicle: saline with Tween-80 103 % of control | [5] 96 % of control | dose: 200.0 mg/kg/injection, schedule: Q01DX001 (ip), vehicle: saline with Tween-80 93 % of control | [6] 100 % of control | dose: 400.0 mg/kg/injection, schedule: Q01DX001 (ip), vehicle: saline with Tween-80 97 % of control | [7] 100 % of control

COCCNC1=C(F)C(=O)C(NCCOC)=C(F)C1=O
inactive: dose: 3.12 mg/kg/injection, schedule: Q04DX003 (ip), vehicle: Klucel (hydroxypropylcellulose) (HPC) 90 % of control | dose: 6.25 mg/kg/injection, schedule: Q04DX003 (ip), vehicle: Klucel (hydroxypropylcellulose) (HPC) 111 % of control | dose: 12.5 mg/kg/injection, schedule: Q04DX003 (ip), vehicle: Klucel (hydroxypropylcellulose) (HPC) 98 % of control | dose: 25.0 mg/kg/injection, schedule: Q04DX003 (ip), vehicle: Klucel (hydroxypropylcellulose) (HPC) 95 % of control | dose: 50.0 mg/kg/injection, schedule: Q04DX003 (ip), vehicle: Klucel (hydroxypropylcellulose) (HPC) 95 % of control | [9] 97 % of control | dose: 150.0 mg/kg/injection, schedule: Q04DX003 (ip), vehicle: Klucel (hydroxypropylcellulose) (HPC) 94 % of control | dose: 225.0 mg/kg/injection, schedule: Q04DX003 (ip), vehicle: Klucel (hydroxypropylcellulose) (HPC) 94 % of control | dose: 335.0 mg/kg/injection, schedule: Q04DX003 (ip), vehicle: Klucel (hydroxypropylcellulose) (HPC) 95 % of control

O=C(Nc1c(Br)cc2c(c1Br)Cc1cc(Br)ccc1-2)C(F)(F)F
inactive: dose: 100.0 mg/kg/injection, schedule: Q01DX001 (ip), vehicle: saline 94 % of control | dose: 200.0 mg/kg/injection, schedule: Q01DX001 (ip), vehicle: saline 101 % of control | dose: 400.0 mg/kg/injection, schedule: Q01DX001 (ip), vehicle: saline 106 % of control
